According to patent US9278094B2, “Treatments for depression and other diseases with a low dose agent” (PharmoRx Therapeutics, Inc., priority 2013, dated 2016):

What was measured:
patients with depression = assay: Patient responses to low dose naltrexone treatment of depression (case reports)
Procedure: Patient #1: A middle aged person suffered severe depression with recurrent major depressive episodes. […] The former pharmacologic regimen was otherwise unchanged.
Patient #3: A patient presented with treatment-resistant depression. The patient was also diagnosed with Attention Deficit Disorder. The patient initially was treated with s-citalopram 15 mg, augmented by dextro-amphetamine.
Patient #4: A patient weighing approximately 60 kg had suffered severe unremitting depression. […] Subsequently, the patient was prescribed 5 mg naltrexone daily with continuation of s-citalopram.
They were being treated with buproprion XL 300 mg, augmented with melatonin 3 mg and N-acetyl-cysteine 1200 mg.
Patient #6: A patient with multiple major depression episodes, anhedonia, apathy, low energy and poor sleep was being treated with duloxetine 60 mg and buproprion 75 mg, and mirtazpine 15 mg. […] They also called and e-mailed multiple times per day. They were being treated with Effexor XR 75 mg QHS, Xanax 0.5 mg, and Clonazepam 1.5 mg.
The patient was then co-administered 1 mg daily of naltrexone with pramipexole.
Patient #9: A middle-age person suffered severe depression with recurrent major depressive episodes and social anxiety. They were being treated with Adderall 10 mg, levothyroxine 50 mcg, and propranol 10 mg.

[1] = biological target: C-terminal pentapeptide of the scaffolding protein filamin A (Homo sapiens, UniProt P21333); settings: Wang, Frankfurt, & Burns, 2008; cited from earlier work
[2] = low dose naltrexone (e.g. less than 10 mg); cited from earlier work
[3] = tested on: patients with breakthrough depression (BTD); assay: Clinical testing of low dose naltrexone treatment of depression (double-blind, placebo-controlled); assay type: in vivo, human
[4] = tested on: Restless Leg Syndrome (RLS); settings: RLS treated with D2/D3 agonists pramipexole or ropinirole; Philips Respironics Actigraphy; see U.S. Ser. No. 12/603,235; cited from earlier work

Chain of C-terminal pentapeptide of the scaffolding protein filamin A (P21333 whole entry): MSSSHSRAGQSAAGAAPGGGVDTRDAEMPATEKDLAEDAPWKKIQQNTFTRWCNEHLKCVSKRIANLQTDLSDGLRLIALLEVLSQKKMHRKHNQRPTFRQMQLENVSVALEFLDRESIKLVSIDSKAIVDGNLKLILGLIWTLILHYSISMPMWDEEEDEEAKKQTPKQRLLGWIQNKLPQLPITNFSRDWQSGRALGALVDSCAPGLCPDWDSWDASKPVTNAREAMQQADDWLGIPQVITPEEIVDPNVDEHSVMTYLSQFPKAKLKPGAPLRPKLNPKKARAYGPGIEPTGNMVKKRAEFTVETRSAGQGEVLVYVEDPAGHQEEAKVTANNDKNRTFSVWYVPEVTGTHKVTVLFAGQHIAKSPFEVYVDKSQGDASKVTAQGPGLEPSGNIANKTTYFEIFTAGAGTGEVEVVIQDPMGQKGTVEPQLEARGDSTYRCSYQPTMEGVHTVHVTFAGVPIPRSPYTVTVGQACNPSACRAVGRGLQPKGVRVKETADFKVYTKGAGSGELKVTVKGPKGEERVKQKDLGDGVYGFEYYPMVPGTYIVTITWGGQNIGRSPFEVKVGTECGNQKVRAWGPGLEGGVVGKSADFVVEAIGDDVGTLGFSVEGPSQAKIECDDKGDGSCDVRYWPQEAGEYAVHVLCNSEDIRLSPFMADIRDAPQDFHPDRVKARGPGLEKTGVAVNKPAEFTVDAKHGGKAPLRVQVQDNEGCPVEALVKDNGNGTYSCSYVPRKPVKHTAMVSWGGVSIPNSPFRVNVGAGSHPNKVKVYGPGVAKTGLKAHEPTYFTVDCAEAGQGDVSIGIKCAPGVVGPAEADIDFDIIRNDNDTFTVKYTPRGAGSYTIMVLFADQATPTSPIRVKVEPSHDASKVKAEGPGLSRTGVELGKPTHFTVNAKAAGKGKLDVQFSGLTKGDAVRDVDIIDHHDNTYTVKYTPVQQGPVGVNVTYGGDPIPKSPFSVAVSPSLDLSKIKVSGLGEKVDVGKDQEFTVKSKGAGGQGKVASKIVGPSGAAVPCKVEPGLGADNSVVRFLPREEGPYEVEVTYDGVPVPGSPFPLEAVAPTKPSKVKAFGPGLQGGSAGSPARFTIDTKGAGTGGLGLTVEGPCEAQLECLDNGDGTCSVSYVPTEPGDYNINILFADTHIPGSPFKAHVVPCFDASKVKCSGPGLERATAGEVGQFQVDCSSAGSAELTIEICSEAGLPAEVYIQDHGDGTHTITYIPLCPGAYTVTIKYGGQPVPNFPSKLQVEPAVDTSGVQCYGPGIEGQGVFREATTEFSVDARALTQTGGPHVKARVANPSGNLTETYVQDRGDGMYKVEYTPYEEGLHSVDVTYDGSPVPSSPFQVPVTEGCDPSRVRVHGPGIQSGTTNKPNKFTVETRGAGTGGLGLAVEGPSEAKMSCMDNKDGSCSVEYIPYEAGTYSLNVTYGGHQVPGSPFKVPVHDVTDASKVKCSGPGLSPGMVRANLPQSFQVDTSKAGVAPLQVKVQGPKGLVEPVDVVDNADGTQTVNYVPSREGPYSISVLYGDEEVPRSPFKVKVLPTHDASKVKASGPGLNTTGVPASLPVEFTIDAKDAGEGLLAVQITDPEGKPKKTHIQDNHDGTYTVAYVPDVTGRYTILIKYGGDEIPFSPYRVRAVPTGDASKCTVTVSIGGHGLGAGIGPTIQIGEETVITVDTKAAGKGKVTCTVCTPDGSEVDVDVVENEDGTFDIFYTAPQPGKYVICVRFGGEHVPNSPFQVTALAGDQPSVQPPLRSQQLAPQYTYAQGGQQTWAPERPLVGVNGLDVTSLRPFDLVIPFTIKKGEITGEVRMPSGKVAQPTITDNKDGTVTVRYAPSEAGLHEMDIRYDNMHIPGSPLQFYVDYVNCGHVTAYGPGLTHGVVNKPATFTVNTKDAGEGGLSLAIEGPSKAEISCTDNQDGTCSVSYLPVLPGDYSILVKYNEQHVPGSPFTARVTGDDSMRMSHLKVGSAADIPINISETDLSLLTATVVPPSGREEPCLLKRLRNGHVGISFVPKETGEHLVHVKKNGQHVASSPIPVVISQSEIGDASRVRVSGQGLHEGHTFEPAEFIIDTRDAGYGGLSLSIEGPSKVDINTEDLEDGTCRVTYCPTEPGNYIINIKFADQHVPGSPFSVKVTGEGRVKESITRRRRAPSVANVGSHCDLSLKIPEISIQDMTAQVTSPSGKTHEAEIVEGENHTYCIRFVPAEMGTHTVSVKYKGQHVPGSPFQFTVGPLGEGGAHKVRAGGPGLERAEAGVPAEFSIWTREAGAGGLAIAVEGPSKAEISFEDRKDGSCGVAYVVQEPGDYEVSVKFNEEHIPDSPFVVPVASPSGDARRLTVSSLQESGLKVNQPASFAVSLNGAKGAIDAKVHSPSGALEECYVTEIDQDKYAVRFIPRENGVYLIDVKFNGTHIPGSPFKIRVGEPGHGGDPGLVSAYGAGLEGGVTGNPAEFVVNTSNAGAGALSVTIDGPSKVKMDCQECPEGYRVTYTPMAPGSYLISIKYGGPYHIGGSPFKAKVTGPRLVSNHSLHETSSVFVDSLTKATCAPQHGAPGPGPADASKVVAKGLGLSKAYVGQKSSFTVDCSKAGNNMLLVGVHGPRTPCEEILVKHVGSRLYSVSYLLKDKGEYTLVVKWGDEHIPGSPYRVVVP

SMILES: CCCN[C@H]1CCc2nc(N)sc2C1 [pramipexole, (S)—N^6-propyl-4,5,6,7-tetrahydro-1,3-benzothiazole-2,6-diamine]
- benefit in depression before naltrexone (patients with depression; Patient #8, pramipexole without naltrexone): limited benefit

SMILES: O=C1CCc2ccc(OCCCCN3CCN(c4cccc(Cl)c4Cl)CC3)cc2N1 [aripiprazole, 7-{4-[4-(2,3-Dichlorophenyl)piperazin-1-yl]butoxy}-3,4-dihydroquinolin-2(1H)-one]
- earlier response of depression (patients with depression; Patient #1, in the past, before naltrexone): transiently responded

SMILES: O=C1CC[C@@]2(O)[C@H]3Cc4ccc(O)c5c4[C@@]2(CCN3CC2CC2)[C@H]1O5 [naltrexone, 17-(cyclopropylmethyl)-4,5α-epoxy-3,14-dihydroxymorphinan-6-one]
- Kd [1]: < 5 pM
- effects of opioid agonists [2]: enhance the effects of opioid agonists
- time to remission after initiating (patients with depression; Patient #1, about 1 mg naltrexone daily): About one
- duration of maintained remission (patients with depression; Patient #1, adjunctive naltrexone 1 mg daily, continuing to present): more than 6 months
- duration of maintained response (patients with depression; Patient #2): over 2 years
- time to response (patients with depression; Patient #2): ≤ 2 weeks
- attention (patients with depression; Patient #3, Attention Deficit Disorder, naltrexone 1 mg added, within days): much improved
- adverse effects reported (patients with depression; Patient #3, naltrexone 1 mg): no adverse effects
- mood response (patients with depression; Patient #3, naltrexone 1 mg added to s-citalopram 15 mg and dextro-amphetamine, within days): marked lifting of mood
- duration of observation remaining euthymic (patients with depression; Patient #4): more than two
- time to remission (patients with depression; Patient #5): two
- duration of improvement (patients with depression; Patient #5, and continuing): five
- time to response (patients with depression; Patient #6): one
- time to response (patients with depression; Patient #7): three
- rates of response on all outcome measures (HAM-D-17, HAM-D-28, MADRS-10, MADRS-15, CGI-S, CGI-I) ([3]; 1 mg bid, on antidepressant regimen containing a pro-dopaminergic agent, versus placebo, three weeks): higher rates of response
- persistence of response ([3]; 1 mg bid, patients on active drug followed six weeks): continued during the entire six week trial period
- Quality of Life, Enjoyment, and Satisfaction Questionnaire (Q-LES-Q) score ([3]; compared to placebo controls): greater improvement
- Sheehan Disability Scale (SDS) score ([3]; compared to placebo controls): greater improvement
- control of periodic limb movements of sleep [4]: equivalent control of limb movements at one-half the prior dose of D2/D3 agonists
